Consider 23 molecules from patent US20140058103A1, “Inhibitors of PI3K-Delta and Methods of Their Use and Manufacture” (Exelixis, Inc., priority 2010, published 2014).

Sequence of PI3K delta (O00329 whole entry): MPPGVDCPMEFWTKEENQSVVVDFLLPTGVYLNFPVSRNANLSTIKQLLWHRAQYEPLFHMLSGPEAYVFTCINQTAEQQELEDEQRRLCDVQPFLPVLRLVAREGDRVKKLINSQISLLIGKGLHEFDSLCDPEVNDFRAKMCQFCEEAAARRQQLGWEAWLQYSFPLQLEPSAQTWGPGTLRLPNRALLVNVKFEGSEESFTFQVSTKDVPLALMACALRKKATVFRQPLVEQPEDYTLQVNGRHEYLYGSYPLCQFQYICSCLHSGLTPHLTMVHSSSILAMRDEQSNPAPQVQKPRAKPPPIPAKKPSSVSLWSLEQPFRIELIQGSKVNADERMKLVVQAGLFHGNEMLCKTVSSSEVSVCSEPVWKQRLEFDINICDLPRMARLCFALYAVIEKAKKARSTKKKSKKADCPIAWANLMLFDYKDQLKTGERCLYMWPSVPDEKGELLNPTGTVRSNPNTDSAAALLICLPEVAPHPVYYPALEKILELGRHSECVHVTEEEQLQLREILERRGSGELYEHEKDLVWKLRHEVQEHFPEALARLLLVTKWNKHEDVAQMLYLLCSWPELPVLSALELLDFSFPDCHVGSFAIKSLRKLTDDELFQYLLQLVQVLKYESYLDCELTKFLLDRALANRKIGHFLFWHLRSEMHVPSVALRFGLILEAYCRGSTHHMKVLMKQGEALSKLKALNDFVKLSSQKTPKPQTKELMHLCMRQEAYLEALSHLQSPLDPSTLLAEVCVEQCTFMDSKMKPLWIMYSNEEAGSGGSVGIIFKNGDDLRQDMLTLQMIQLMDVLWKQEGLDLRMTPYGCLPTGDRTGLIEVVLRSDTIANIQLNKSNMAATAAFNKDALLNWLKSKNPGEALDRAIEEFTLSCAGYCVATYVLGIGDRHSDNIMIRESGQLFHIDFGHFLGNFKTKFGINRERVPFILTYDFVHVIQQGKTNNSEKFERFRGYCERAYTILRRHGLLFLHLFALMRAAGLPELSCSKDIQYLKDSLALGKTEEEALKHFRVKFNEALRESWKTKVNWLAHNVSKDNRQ
Sequence of PI3K delta (P27986 whole entry partner): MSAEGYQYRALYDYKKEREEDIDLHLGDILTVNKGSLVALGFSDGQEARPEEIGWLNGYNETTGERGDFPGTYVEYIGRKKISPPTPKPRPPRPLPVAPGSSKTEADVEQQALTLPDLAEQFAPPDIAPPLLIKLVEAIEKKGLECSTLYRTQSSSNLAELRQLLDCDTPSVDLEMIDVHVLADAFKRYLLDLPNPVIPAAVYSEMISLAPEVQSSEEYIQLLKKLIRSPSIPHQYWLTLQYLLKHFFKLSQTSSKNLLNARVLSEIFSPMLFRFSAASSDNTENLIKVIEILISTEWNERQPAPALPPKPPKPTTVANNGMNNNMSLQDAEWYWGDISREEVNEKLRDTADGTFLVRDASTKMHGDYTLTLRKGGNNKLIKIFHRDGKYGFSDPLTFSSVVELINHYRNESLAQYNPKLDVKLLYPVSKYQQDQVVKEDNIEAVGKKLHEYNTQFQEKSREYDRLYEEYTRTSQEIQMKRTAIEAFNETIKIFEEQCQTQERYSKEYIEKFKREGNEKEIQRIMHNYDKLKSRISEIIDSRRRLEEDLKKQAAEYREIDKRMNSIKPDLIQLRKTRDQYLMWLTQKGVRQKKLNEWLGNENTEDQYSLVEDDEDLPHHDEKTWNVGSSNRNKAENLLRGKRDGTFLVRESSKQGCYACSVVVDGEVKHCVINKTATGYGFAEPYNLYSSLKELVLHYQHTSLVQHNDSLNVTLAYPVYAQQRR

This test concerns the target PI3K delta (Homo sapiens, UniProt O00329). The test can be described thus: Luciferase-coupled chemiluminescence kinase assay (ATP consumption, KinaseGlo). It counts as biochemical. In a few lines:
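ATP consumption measured by KinaseGlo luciferase chemiluminescence after a 2 h reaction at ambient temperature, with ATP at or below the kinase KM. Ten inhibitor concentrations per curve; IC50 from four-parameter nonlinear regression.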
A general note: Kinase-Glo measures the ATP left after a reaction by luminescence.
One may read the IC50 as the midpoint of a concentration-inhibition curve. A higher IC50 goes with weaker potency. For the molecule `Cn1c(-c2cn[nH]c2C(F)(F)F)nc2c(N3CCC(n4c(=O)[nH]c5ccccc54)CC3)ncnc21` [Compound 262, 1-(1-{9-methyl-8-[5-(trifluoromethyl)-1H-pyrazol-4-yl]-9H-purin-6-yl}piperidin-4-yl)-1,3-dihydro-2H-benzimidazol-2-one], the IC50 was in the range of 50 to 250 nM.

Turning to `Cn1cc(-c2nc3c(N4CCC(C#N)(c5ccccc5)CC4)ncnc3n2C)cn1` [Compound 263, 1-[9-Methyl-8-(1-methyl-1H-pyrazol-4-yl)-9H-purin-6-yl]-4-phenylpiperidine-4-carbonitrile], the IC50 was 50 to 250 nM.

`Cn1c(C(=O)NCC2CC2)nc2c(N3CCN(C4=NS(=O)(=O)c5ccccc54)CC3)ncnc21` [Compound 264, N-(cyclopropylmethyl)-6-[4-(1,1-dioxido-1,2-benzisothiazol-3-yl)piperazin-1-yl]-9-methyl-9H-purine-8-carboxamide] came in with an IC50 of 500 to 1500 nM.

For the molecule `Cn1c(-c2ccoc2)nc2c(N3CCC(n4c(=O)[nH]c5ccccc54)CC3)ncnc21` [Compound 265, 1-[1-(8-furan-3-yl-9-methyl-9H-purin-6-yl)piperidin-4-yl]-1,3-dihydro-2H-benzimidazol-2-one], the IC50 lay in the range of 50 to 250 nM.

With `Cn1c(-c2ccncc2)nc2c(N3CCC(n4c(=O)[nH]c5ccccc54)CC3)ncnc21` [Compound 266, 1-[1-(9-methyl-8-pyridin-4-yl-9H-purin-6-yl)piperidin-4-yl]-1,3-dihydro-2H-benzimidazol-2-one], the IC50 fell in the range of 250 to 500 nM.

Molecule `Cn1c(-c2ccccc2)nc2c(N3CCC(n4c(=O)[nH]c5ccccc54)CC3)ncnc21` [Compound 267, 1-[1-(9-methyl-8-phenyl-9H-purin-6-yl)piperidin-4-yl]-1,3-dihydro-2H-benzimidazol-2-one] registered an IC50 of 500 to 1500 nM.

`Cn1c(-c2cccnc2)nc2c(N3CCC(n4c(=O)[nH]c5ccccc54)CC3)ncnc21` [Compound 268, 1-[1-(9-Methyl-8-pyridin-3-yl-9H-purin-6-yl)piperidin-4-yl]-1,3-dihydro-2H-benzimidazol-2-one]: the IC50 was under 50 nM.

As for `Cn1cc(-c2nc3c(N4CCC(n5c(=O)[nH]c6ncccc65)CC4)ncnc3n2C)cn1` [Compound 269, 1-{1-[9-methyl-8-(1-methyl-1H-pyrazol-4-yl)-9H-purin-6-yl]piperidin-4-yl}-1,3-dihydro-2H-imidazo[4,5-b]pyridin-2-one], the IC50 was under 50 nM.

As to `CCn1c(C(=O)NCC2CC2)nc2c(N3CCC(n4c(=O)[nH]c5ncccc54)CC3)ncnc21` [Compound 270, N-(cyclopropylmethyl)-9-ethyl-6-[4-(2-oxo-2,3-dihydro-1H-imidazo[4,5-b]pyridin-1-yl)piperidin-1-yl]-9H-purine-8-carboxamide], the IC50 is under 50 nM.

In turn, `Cn1c(-c2cncnc2)nc2c(N3CCC(n4c(=O)[nH]c5ccccc54)CC3)ncnc21` [Compound 271, 1-[1-(9-methyl-8-pyrimidin-5-yl-9H-purin-6-yl)piperidin-4-yl]-1,3-dihydro-2H-benzimidazol-2-one] returned an IC50 of under 50 nM.

`Cn1ncc(-c2nc3c(N4CCC(n5c(=O)[nH]c6ccccc65)CC4)ncnc3n2C)c1Cl` [Compound 272, 1-{1-[8-(5-chloro-1-methyl-1H-pyrazol-4-yl)-9-methyl-9H-purin-6-yl]piperidin-4-yl}-1,3-dihydro-2H-benzimidazol-2-one] displayed an IC50 of under 50 nM.

Take `Cn1c(C(=O)NCC(C)(C)O)nc2c(N3CCC(n4c(=O)[nH]c5ccccc54)CC3)ncnc21` [Compound 273, N-(2-hydroxy-2-methylpropyl)-9-methyl-6-[4-(2-oxo-2,3-dihydro-1H-benzimidazol-1-yl)piperidin-1-yl]-9H-purine-8-carboxamide]: the IC50 is under 50 nM.

For the molecule `COC(=O)C1(c2ccccc2)CCN(c2ncnc3c2nc(-c2cnn(C)c2)n3C)CC1` [Compound 274, methyl 1-[9-methyl-8-(1-methyl-1H-pyrazol-4-yl)-9H-purin-6-yl]-4-phenylpiperidine-4-carboxylate], the IC50 lay in the range of 500 to 1500 nM.

For `Cn1c(C(=O)NCC2CC2)nc2c(N3CCC(C#N)(c4ccccc4)CC3)ncnc21` [Compound 275, 6-(4-cyano-4-phenylpiperidin-1-yl)-N-(cyclopropylmethyl)-9-methyl-9H-purine-8-carboxamide], the IC50 was in the range of 50 to 250 nM.

Consider `CN(C)CCOc1cccc2c1[nH]c(=O)n2C1CCN(c2ncnc3c2nc(C(=O)NCC2CC2)n3C)CC1` [Compound 276, N-(cyclopropylmethyl)-6-[4-(4-{[2-(dimethylamino)ethyl]oxy}-2-oxo-2,3-dihydro-1H-benzimidazol-1-yl)piperidin-1-yl]-9-methyl-9H-purine-8-carboxamide], for which the IC50 lay within 250 to 500 nM.

On to `CC1CC(n2c(=O)[nH]c3ccccc32)CCN1c1ncnc2c1nc(C(=O)NCC1CC1)n2C` (centres unmarked) [Compound 277, N-(cyclopropylmethyl)-9-methyl-6-[2-methyl-4-(2-oxo-2,3-dihydro-1H-benzimidazol-1-yl)piperidin-1-yl]-9H-purine-8-carboxamide], for which the IC50 is 50 to 250 nM.

For the molecule `Cn1c(C(=O)NCC2CC2)nc2c(N3CCC(n4c(=O)[nH]c5c(F)cccc54)CC3)ncnc21` [Compound 278, N-(cyclopropylmethyl)-6-[4-(4-fluoro-2-oxo-2,3-dihydro-1H-benzimidazol-1-yl)piperidin-1-yl]-9-methyl-9H-purine-8-carboxamide], the IC50 lay in the range of 50 to 250 nM.

The molecule `Cn1c(-c2ccc(C(F)(F)F)nc2)nc2c(N3CCC(n4c(=O)[nH]c5ccccc54)CC3)ncnc21` [Compound 279, 1-(1-{9-methyl-8-[6-(trifluoromethyl)pyridin-3-yl]-9H-purin-6-yl}piperidin-4-yl)-1,3-dihydro-2H-benzimidazol-2-one] registered an IC50 of under 50 nM.

The molecule `Cn1c(-c2ccnnc2)nc2c(N3CCC(n4c(=O)[nH]c5ccccc54)CC3)ncnc21` [Compound 280, 1-[1-(9-methyl-8-pyridazin-4-yl-9H-purin-6-yl)piperidin-4-yl]-1,3-dihydro-2H-benzimidazol-2-one] gave an IC50 of 50 to 250 nM.

Take `CCn1ncc(-c2nc3c(N4CCC(n5c(=O)[nH]c6ccccc65)CC4)ncnc3n2C)c1C` [Compound 281, 1-{1-[8-(1-ethyl-5-methyl-1H-pyrazol-4-yl)-9-methyl-9H-purin-6-yl]piperidin-4-yl}-1,3-dihydro-2H-benzimidazol-2-one]: the IC50 was under 50 nM.

For `Cc1cncc(-c2nc3c(N4CCC(n5c(=O)[nH]c6ccccc65)CC4)ncnc3n2C)c1` [Compound 282, 1-{1-[9-methyl-8-(5-methylpyridin-3-yl)-9H-purin-6-yl]piperidin-4-yl}-1,3-dihydro-2H-benzimidazol-2-one], the IC50 was under 50 nM.

`Cn1c(-c2ccc(Cl)nc2)nc2c(N3CCC(n4c(=O)[nH]c5ccccc54)CC3)ncnc21` [Compound 283, 1-{1-[8-(6-chloropyridin-3-yl)-9-methyl-9H-purin-6-yl]piperidin-4-yl}-1,3-dihydro-2H-benzimidazol-2-one] gave an IC50 of under 50 nM.

In the case of `Cc1nc(C(F)(F)F)ccc1-c1nc2c(N3CCC(n4c(=O)[nH]c5ccccc54)CC3)ncnc2n1C` [Compound 284, 1-(1-{9-methyl-8-[2-methyl-6-(trifluoromethyl)pyridin-3-yl]-9H-purin-6-yl}piperidin-4-yl)-1,3-dihydro-2H-benzimidazol-2-one], the IC50 lay in the range of 500 to 1500 nM.
